For orientation: IC50 means the concentration needed to halve the response being measured. Read a low IC50 as greater potency in that assay. As a reminder, the inhibition is the relative decrease from the control value, in per cent.

These results are taken from patent US20260015350A1, “AZAQUINAZOLINE PAN-KRAS INHIBITORS” (Mirati Therapeutics, Inc., priority 2022, published 2026).

For assay [1], the system named is KRas-mediated phosphorylation of ERK in H727 cells. The experiment in a line: Inhibition of KRas-mediated phosphorylation of ERK (Cisbio HTRF pERK), H727 cells. Type of assay: cell-based. To be noted: Homo sapiens; for IC50: NCI-H727, H727 cells, HTRF pERK. An outline of the steps: (§1)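 H358, H727, H460 and AsPC-1 cells seeded at 6,000/well, treated 3 hrs with 10-dose 3-fold dilutions from 10 uM (0.8% DMSO); 0.2 uM trametinib as min control. Lysed 40 min at 4° C; lysate incubated 2 hrs at room temperature with d2/cryptate antibodies, HTRF read.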
On the technique in general: TR-FRET usually uses a lanthanide donor and a delayed reading to cut background.

For the next assay, the target named is T1, KRas^G12D (Homo sapiens, UniProt P01116, G12D).
T1 construct: Biotinylated KRas (corresponding to amino acids 1-169, produced at Accelegan Inc.); biotin (biotinylated); purchased Accelegan Inc
In words: KRas binding assay (TR-FRET tracer displacement), KRas G12D.

Assay [2] concerns KRas-mediated phosphorylation of ERK in HCT116 cells. In words: Inhibition of KRas-mediated phosphorylation of ERK (Cisbio HTRF pERK), HCT116 cells. Type of assay: cell-based. The following applies: Homo sapiens; for inhibition at 0.1 µM: HCT-116, 3 h, single point, 100 nM compound, 3 hrs. The gist of the method:
(§2)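 6,000 cells/well; cpd 10 uM top, 3-fold x10, 0.8% DMSO final; 3 hr incubation; Min ctrl Trametinib 0.2 uM; lysis 40 min 4° C shaking; d2 + Cryptate Ab mix, 2 hr RT; HTRF read.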

The subject of assay [3] is KRas-mediated phosphorylation of ERK in H460 cells. In words: Inhibition of KRas-mediated phosphorylation of ERK (Cisbio HTRF pERK), H460 cells. Type of assay: cell-based. The following applies: Homo sapiens; for inhibition at 0.1 µM: NCI-H460, 3 h, single point, 100 nM compound, 3 hrs. The gist of the method:
as §1

Assay [4] has as its system KRas-mediated phosphorylation of ERK in A549 cells. The experiment in a line: Inhibition of KRas-mediated phosphorylation of ERK (Cisbio HTRF pERK), A549 cells. Type of assay: cell-based. The following applies: Homo sapiens; for inhibition at 0.1 µM: A549, 3 h, single point, 100 nM compound, 3 hrs. An outline of the steps:
as §2

Another assay addresses T2, KRas^G12R (Homo sapiens, UniProt P01116, G12R).
T2 construct: Biotinylated KRas (corresponding to amino acids 1-169, produced at Accelegan Inc.); biotin (biotinylated); purchased Accelegan Inc
The experiment in a line: KRas binding assay (TR-FRET tracer displacement), KRas G12R.

The test system of assay [5] is KRas-mediated phosphorylation of ERK in AsPC-1 cells. The experiment in a line: Inhibition of KRas-mediated phosphorylation of ERK (Cisbio HTRF pERK), AsPC-1 cells. Type of assay: cell-based. To be noted: Homo sapiens; for IC50: ASPC1, AsPC-1 cells, HTRF pERK. The gist of the method:
as §1

A further assay addresses T3, KRas^G12V (Homo sapiens, UniProt P01116, G12V).
T3 construct: Biotinylated KRas (corresponding to amino acids 1-169, produced at Accelegan Inc.); biotin (biotinylated); purchased Accelegan Inc
The experiment in a line: KRas binding assay (TR-FRET tracer displacement), KRas G12V.

Assay [6] has as its system KRas-mediated phosphorylation of ERK in H358 cells. The experiment in a line: Inhibition of KRas-mediated phosphorylation of ERK (Cisbio HTRF pERK), H358 cells. Type of assay: cell-based. To be noted: Homo sapiens; for inhibition at 0.1 µM: NCI-H358, 3 h, single point, 100 nM compound, 3 hrs. As for the experimental part: Inhibition of KRas Phosphorylation of ERK (HTRF) by Exemplary Compounds of Formula (I) Cisbio HTRF Advanced PERK Assay Catalog #64[…] […] Add 10 mL of media to stop trypsinizing. Pipette the cells into a conical bottom 50 mL centrifuge tube and centrifuge 5 min×1000 rpm. […] Re-suspend the cell pellet in media, take a cell count, and then adjust the cell density using fresh media. […] Seed 6,000 cells into cell culture plate with 50 μL media. […] Use Tecan to complete the compound addition. Compounds start from 10 uM top, 3-fold dilution, and 10 doses. The final DMSO concentration is 0.8%. Dispensed 0.2 uM Trametinib as Min control. […] Incubate cell plate for 3 hrs in the incubator. […] Dilute 1 volume of 4× lysis buffer with 3 volumes of deionized water. […] Keep lysis buffer on the ice. […] At the end of the compound treatment, flick-off the media. […] Add 35 μL of lysis buffer per well using a Multidrop Combi. Then place on a plate agitator shaking at 300 rpm at 4° C. for 40 mins. […] Make up the HTRF antibody buffer. For each assay plate, mix 50 μL of d2-conjugate antibody with 950 μL of detection buffer. Similarly, mix 50 μL of Cryptate antibody with 950 μL of detection buffer. Then mix the two diluted antibodies together. […] Dispense 3.4 μL the antibody buffer to wells of an empty assay plate. Seal the plate and centrifuge plate 30 sec×1000 rpm. […] At the end of the 4° C. lysis, centrifuge the lysate plates 3 mins×1500 rpm. […] Use the Bravo to transfer 13.6 μL of lysate from cell culture plate to assay plate. Then incubate assay plate for 2 hrs at room temperature. 8. At the end of incubation, read plate on the Envision after centrifuging plate 30 sec×1000 rpm.

T1 sequence (P01116 1-169 isoform P01116-2 G12D): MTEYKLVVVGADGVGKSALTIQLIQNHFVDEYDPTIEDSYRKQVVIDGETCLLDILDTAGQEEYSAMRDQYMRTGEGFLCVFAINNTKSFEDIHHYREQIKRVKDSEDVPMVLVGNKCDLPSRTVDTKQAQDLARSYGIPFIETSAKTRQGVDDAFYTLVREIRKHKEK
T3 sequence (P01116 1-169 isoform P01116-2 G12V): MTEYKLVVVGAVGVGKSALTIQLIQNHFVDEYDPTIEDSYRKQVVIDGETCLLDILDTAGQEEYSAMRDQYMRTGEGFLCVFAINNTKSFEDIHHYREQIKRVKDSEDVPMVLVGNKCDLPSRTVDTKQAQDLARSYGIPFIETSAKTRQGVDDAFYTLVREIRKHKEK
T2 sequence (P01116 1-169 isoform P01116-2 G12R): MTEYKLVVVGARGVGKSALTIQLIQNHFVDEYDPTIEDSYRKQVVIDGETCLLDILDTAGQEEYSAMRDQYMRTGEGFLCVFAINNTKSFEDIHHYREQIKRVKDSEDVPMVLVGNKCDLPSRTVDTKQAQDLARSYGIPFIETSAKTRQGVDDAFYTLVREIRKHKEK

Take `CCc1c(F)ccc2cc(O)cc(-c3ncc4c(N5CCCn6nc(C(=O)N(C)C)cc6C5)nc(N5CC(N(C)C)C5)nc4c3F)c12` [Example 535, 5-(2-(3-(dimethylamino)azetidin-1-yl)-7-(8-ethyl-7-fluoro-3-hydroxynaphthalen-1-yl)-8-fluoropyrido[4,3-d]pyrimidin-4-yl)-N,N-dimethyl-5,6,7,8-tetrahydro-4H-pyrazolo[1,5-a][1,4]diazepine-2-carboxamide]: the IC50 was determined as 2190 nM in [1]; 17 nM on KRas^G12D; 44 nM on KRas^G12R; 1620 nM in [5]; 27 nM on KRas^G12V. The inhibition at 0.1 µM in [2] is -3%; in assay [3] it was 16%; in assay [4] it was -9%; in assay [6], -8%.

For `C#CC1(F)CCN(c2nc(OC[C@@]34CCCN3C[C@H](F)C4)nc3c(F)c(-c4cc(O)cc5ccc(F)c(CC)c45)ncc23)CC1` [Example 553, 5-ethyl-4-(4-(4-ethynyl-4-fluoropiperidin-1-yl)-8-fluoro-2-(((2R,7aS)-2-fluorotetrahydro-1H-pyrrolizin-7a(5H)-yl)methoxy)pyrido[4,3-d]pyrimidin-7-yl)-6-fluoronaphthalen-2-ol], the IC50 worked out at 1630 nM in assay [1]; 864 nM at KRas^G12D; 79 nM at KRas^G12R; 5160 nM in [5]; 77 nM on KRas^G12V. In addition, the inhibition at 0.1 µM in assay [2] is 6%; in assay [3], 0%; in [4], 0%; in assay [6], 3%.

Take `CCc1c(F)ccc2cc(O)cc(-c3ncc4c(N5CCCc6ncncc6C5)nc(OC[C@@]56CCCN5C[C@H](F)C6)nc4c3F)c12` [Example 582, 4-(4-(8,9-dihydro-5H-pyrimido[5,4-c]azepin-6(7H)-yl)-8-fluoro-2-(((2R,7aS)-2-fluorohexahydro-1H-pyrrolizin-7a-yl)methoxy)pyrido[4,3-d]pyrimidin-7-yl)-5-ethyl-6-fluoronaphthalen-2-ol]: the 50% inhibitory concentration (IC50) in assay [1] was found to be 328 nM; on KRas^G12D, 3 nM; at KRas^G12R, 10 nM; in assay [5], 130 nM; at KRas^G12V, 11 nM. Besides, the inhibition at 0.1 µM in assay [2] is 13%; in assay [3], 3%; in [4], 32%; in [6], 15%.

For `CCc1c(F)ccc2cc(O)cc(-c3ncc4c(N5CCCc6nnncc6C5)nc(OC[C@@]56CCCN5C[C@H](F)C6)nc4c3F)c12` [Example 584, 4-(4-(8,9-dihydro-5H-[1,2,3]triazino[5,4-c]azepin-6(7H)-yl)-8-fluoro-2-(((2R,7aS)-2-fluorohexahydro-1H-pyrrolizin-7a-yl)methoxy)pyrido[4,3-d]pyrimidin-7-yl)-5-ethyl-6-fluoronaphthalen-2-ol], the inhibition at 0.1 µM in [1] (NCI-H727, 3 h, single point, 100 nM compound, 3 hrs, H727 cells) was -18%; in assay [2], 3%; in [3] it was 11%; in assay [4] it was 14%; in [5] (ASPC1, 3 h, single point, 100 nM compound, 3 hrs, AsPC-1 cells) it was -20%; in assay [6] it was 15%. The IC50 in [1] is 981 nM; at KRas^G12D it was less than 2 nM; at KRas^G12R it was 12 nM; in [5], 231 nM; at KRas^G12V, 6 nM.

Take `CCc1c(F)ccc2cc(O)cc(-c3ncc4c(N5CCCC(C6CCOC6)C5)nc(OC[C@@]56CCCN5C[C@H](F)C6)nc4c3F)c12` (stereo partly drawn) [Example 595, 5-ethyl-6-fluoro-4-(8-fluoro-2-(((2R,7aS)-2-fluorohexahydro-1H-pyrrolizin-7a-yl)methoxy)-4-(3-(tetrahydrofuran-3-yl)piperidin-1-yl)pyrido[4,3-d]pyrimidin-7-yl)naphthalen-2-ol]: the IC50 in assay [1] was 1190 nM; at KRas^G12D it was 194 nM; at KRas^G12R it was 85 nM; in [5] it was 1570 nM; on KRas^G12V, 38 nM. Moreover, the inhibition at 0.1 µM was -9% in assay [2], 12% in assay [3], 3% in assay [4] and -1% in assay [6].

As for `CCc1c(F)ccc2cc(O)cc(-c3ncc4c(N5CCC(C)(O)C(F)(F)CC5)nc(OC[C@@]56CCCN5C[C@H](F)C6)nc4c3F)c12` (stereo partly drawn) [Example 605, 1-(7-(8-ethyl-7-fluoro-3-hydroxynaphthalen-1-yl)-8-fluoro-2-(((2R,7aS)-2-fluorotetrahydro-1H-pyrrolizin-7a(5H)-yl)methoxy)pyrido[4,3-d]pyrimidin-4-yl)-5,5-difluoro-4-methylazepan-4-ol], the IC50 is 946 nM in [1]; 119 nM at KRas^G12D; 47 nM on KRas^G12R; 1560 nM in [5]; 71 nM at KRas^G12V. The inhibition at 0.1 µM was -12% in assay [2], 7% in assay [3], 20% in assay [4] and 3% in [6].

In the case of `CCc1c(F)ccc2cc(O)cc(-c3ncc4c(N5C[C@@H]6C[C@]6(c6nc(C)no6)C5)nc(OC[C@@]56CCCN5C[C@H](F)C6)nc4c3F)c12` [Example 607, 5-ethyl-6-fluoro-4-(8-fluoro-2-(((2R,7aS)-2-fluorotetrahydro-1H-pyrrolizin-7a(5H)-yl)methoxy)-4-((1R,5R)-1-(3-methyl-1,2,4-oxadiazol-5-yl)-3-azabicyclo[3.1.0]hexan-3-yl)pyrido[4,3-d]pyrimidin-7-yl)naphthalen-2-ol], the IC50 in assay [1] came out at 1770 nM; at KRas^G12D, 151 nM; at KRas^G12R it was 99 nM; in assay [5] it was 1740 nM; at KRas^G12V, 53 nM. For the same compound, the inhibition at 0.1 µM in assay [2] stood at 24%; in assay [3] it was 62%; in assay [4], 34%; in [6], 9%.

As for `CCc1c(F)ccc2cc(O)cc(-c3ncc4c(N5CCCC(Cn6cccn6)C5)nc(OC[C@@]56CCCN5C[C@H](F)C6)nc4c3F)c12` (stereo partly drawn) [Example 610, 4-(4-(3-((1H-pyrazol-1-yl)methyl)piperidin-1-yl)-8-fluoro-2-(((2R,7aS)-2-fluorotetrahydro-1H-pyrrolizin-7a(5H)-yl)methoxy)pyrido[4,3-d]pyrimidin-7-yl)-5-ethyl-6-fluoronaphthalen-2-ol], the IC50 was 660 nM in assay [1]; 66 nM on KRas^G12D; 1010 nM in assay [2] (HCT-116, HTRF pERK); 256 nM in [3] (NCI-H460, HTRF pERK); 1300 nM in [4] (HTRF pERK); 48 nM at KRas^G12R. The IC50 in [5] turned out to be 884 nM; at KRas^G12V, 28 nM; in [6] (NCI-H358, HTRF pERK), 662 nM. Moreover, the inhibition at 0.1 µM in [2] was -5%; in [3] it was 31%; in assay [4] it was 10%; in [6], 1%.
